Laboratory results taken from US12049450B2, “Pyridyloxy-carboxylate derivative and preparation method therefor, herbicidal composition, and use” (Qingdao Kingagroot Chemical Compound Co., Ltd., priority 2018, dated 2024).

Tests used:
Type in all cases: in vivo
Monochoria vaginalis [1] = assay: Weed control effect evaluation in rice field soil pot; conditions: paddy pot, 1000 g/ha, 14 days after treatment; resistant to pyrazosulfuron-ethyl and penoxsulam
Excerpt: (§1) The activity level standard of harmful plants destruction (i. e. growth inhibition rate) is as follows: • Level 5: the growth inhibition rate is greater than 85%; • Level 4: the growth inhibition rate is equal to or greater than 60% and less than 85%; • Level 3: the growth inhibition rate is equal to or greater than 40% and less than 60%; • Level 2: the growth inhibition rate is equal to or greater than 20% and less than 40%; • Level 1: the growth inhibition rate is equal to or greater than 5% and less than 20%; • Level 0: the growth inhibition rate is less than 5%;
(§2) Transplanted rice safety evaluation and weed control effect evaluation in rice field:
Rice field soil was loaded into a 1/1,000,000 ha pot. The seeds of Monochoria vaginalis were sowed and gently covered with soil, then left to stand still in greenhouse in the state of 0.5-1 cm of water storage. It was kept at 3-4 cm of water storage thereafter. The weeds were treated by dripping the WP or SC water diluents prepared according to the common preparation method of the compounds of the present invention with pipette homogeneously to achieve specified effective amount when Monochoria vaginalis reached 0.5 leaf stage.
(§3) The fertility condition of Monochoria vaginalis 14 days and rice 21 days after the treatment of the compound of the invention with the naked eye.

rice (japonica rice) = assay: Transplanted rice safety evaluation in rice field soil pot; conditions: 1000 g/ha, 21 days after treatment
Excerpt: as §1, §2
In addition, the rice field soil that loaded into the 1/1,000,000 ha pot was leveled to keep water storage at 3-4 cm depth. The 3-leaf stage rice (japonica rice) was transplanted at 3 cm of transplanting depth the next day. The compound of the present invention was treated by the same way after 5 days of transplantation.
as §3

Indica rice = assay: Post-emergence test experiment (greenhouse pot, spray at 2-3 leaf stage); conditions: post-emergence, 600 g/ha, after 3 weeks
How it was run: (§4)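 Activity graded levels 0-5 by fresh-weight inhibition (level 5 above 85%, level 0 below 5%), assessed 3 weeks after treatment. Plants grown in greenhouse pots were sprayed post-emergence at 2-3 leaves using acetone/tween-80 solutions with methyl oleate synergist (1.5 L/ha).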

Japonica rice = assay: as above; conditions: post-emergence, 600 g/ha, after 3 weeks
How it was run: as §4

Echinochloa crusgalli = assay: as above; conditions: for Activity level (growth inhibition rate) Echinochloa crusgalli: 1000 g/ha, post-emergence spray at 2-3 leaf stage, assessed after 3 weeks, fresh weight inhibition rate; for Echinochloa crusgalli, activity level (growth inhibition rate): post-emergence, 600 g/ha, after 3 weeks, from Hunan, resistant to ALS inhibitor herbicides
How it was run: as §4

Monochoria vaginalis [2] = assay: as above; conditions: 1000 g/ha; post-emergence spray at 2-3 leaf stage; assessed after 3 weeks; fresh weight inhibition rate
How it was run: as §4

Galium spurium = assay: as above; conditions: 1000 g/ha; post-emergence spray at 2-3 leaf stage; assessed after 3 weeks; fresh weight inhibition rate
How it was run: as §4

Digitaria sanguinalis = assay: as above; conditions: 1000 g/ha; post-emergence spray at 2-3 leaf stage; assessed after 3 weeks; fresh weight inhibition rate
How it was run: as §4

Cyperus iria = assay: as above; conditions: post-emergence, 600 g/ha, after 3 weeks; from Hunan, resistant to ALS inhibitor herbicides
How it was run: as §4

Abutilon theophrasti = assay: as above; conditions: 1000 g/ha; post-emergence spray at 2-3 leaf stage; assessed after 3 weeks; fresh weight inhibition rate
How it was run: as §4

For CC(Oc1nc(F)c(Cl)c(N)c1Cl)C(=O)SCc1cccc(Cl)c1 (stereo not drawn) [Compound 76], the “Monochoria Vaginalis, activity level” value (Monochoria vaginalis [1]) was 5 (Level 5: the growth inhibition rate is greater than 85%), the “Rice, safety level” value (rice (japonica rice)) was 0 (Level 0: the growth inhibition rate is less than 5%) and the “Indica rice, activity level (growth inhibition rate)” value (Indica rice) was 0 (Level 0: the growth inhibition rate is less than 5%). For the same compound, the “Japonica rice, activity level (growth inhibition rate)” value (Japonica rice) was 0 (Level 0: the growth inhibition rate is less than 5%), the “Activity level (growth inhibition rate) Echinochloa crusgalli” value (Echinochloa crusgalli) was 5 (Level 5: the growth inhibition rate is greater than 85%) and the “Echinochloa crusgalli, activity level (growth inhibition rate)” value (Echinochloa crusgalli) was 5 (Level 5: the growth inhibition rate is greater than 85%). The “Activity level (growth inhibition rate) Monochoria Vaginalis” value (Monochoria vaginalis [2]) was 5 (Level 5: the growth inhibition rate is greater than 85%), the “Activity level (growth inhibition rate) Galium spurium” value (Galium spurium) was 5 (Level 5: the growth inhibition rate is greater than 85%) and the “Activity level (growth inhibition rate) Digitaria sanguinalis” value (Digitaria sanguinalis) was 5 (Level 5: the growth inhibition rate is greater than 85%). The “Cyperus iria, activity level (growth inhibition rate)” value (Cyperus iria) was 5 (Level 5: the growth inhibition rate is greater than 85%) and the “Activity level (growth inhibition rate) Abutilon theophrasti” value (Abutilon theophrasti) was 5 (Level 5: the growth inhibition rate is greater than 85%).
COc1c(Cl)ccc(COC(=O)C(C)Oc2nc(F)c(Cl)c(N)c2Cl)c1F (stereo not drawn) [Compound 85] was tested, and the “Monochoria Vaginalis, activity level” value (Monochoria vaginalis [1]) was 5 (Level 5: the growth inhibition rate is greater than 85%), the “Rice, safety level” value (rice (japonica rice)) was 0 (Level 0: the growth inhibition rate is less than 5%) and the “Indica rice, activity level (growth inhibition rate)” value (Indica rice) was 0 (Level 0: the growth inhibition rate is less than 5%). The “Japonica rice, activity level (growth inhibition rate)” value (Japonica rice) was 0 (Level 0: the growth inhibition rate is less than 5%), the “Activity level (growth inhibition rate) Echinochloa crusgalli” value (Echinochloa crusgalli) was 5 (Level 5: the growth inhibition rate is greater than 85%) and the “Echinochloa crusgalli, activity level (growth inhibition rate)” value (Echinochloa crusgalli) was 5 (Level 5: the growth inhibition rate is greater than 85%). The “Activity level (growth inhibition rate) Monochoria Vaginalis” value (Monochoria vaginalis [2]) was 5 (Level 5: the growth inhibition rate is greater than 85%), the “Activity level (growth inhibition rate) Galium spurium” value (Galium spurium) was 5 (Level 5: the growth inhibition rate is greater than 85%) and the “Activity level (growth inhibition rate) Digitaria sanguinalis” value (Digitaria sanguinalis) was 5 (Level 5: the growth inhibition rate is greater than 85%). For the same compound, the “Cyperus iria, activity level (growth inhibition rate)” value (Cyperus iria) was 5 (Level 5: the growth inhibition rate is greater than 85%) and the “Activity level (growth inhibition rate) Abutilon theophrasti” value (Abutilon theophrasti) was 5 (Level 5: the growth inhibition rate is greater than 85%).
CC(Oc1nc(F)c(Cl)c(N)c1Cl)C(=O)OCc1ccccn1 (stereo not drawn) [Compound 120] was tested, and the “Monochoria Vaginalis, activity level” value (Monochoria vaginalis [1]) was 5 (Level 5: the growth inhibition rate is greater than 85%), the “Rice, safety level” value (rice (japonica rice)) was 0 (Level 0: the growth inhibition rate is less than 5%) and the “Indica rice, activity level (growth inhibition rate)” value (Indica rice) was 0 (Level 0: the growth inhibition rate is less than 5%). For the same compound, the “Japonica rice, activity level (growth inhibition rate)” value (Japonica rice) was 0 (Level 0: the growth inhibition rate is less than 5%), the “Activity level (growth inhibition rate) Echinochloa crusgalli” value (Echinochloa crusgalli) was 5 (Level 5: the growth inhibition rate is greater than 85%) and the “Echinochloa crusgalli, activity level (growth inhibition rate)” value (Echinochloa crusgalli) was 5 (Level 5: the growth inhibition rate is greater than 85%). The “Activity level (growth inhibition rate) Monochoria Vaginalis” value (Monochoria vaginalis [2]) was 5 (Level 5: the growth inhibition rate is greater than 85%), the “Activity level (growth inhibition rate) Galium spurium” value (Galium spurium) was 5 (Level 5: the growth inhibition rate is greater than 85%) and the “Activity level (growth inhibition rate) Digitaria sanguinalis” value (Digitaria sanguinalis) was 5 (Level 5: the growth inhibition rate is greater than 85%). For the same compound, the “Cyperus iria, activity level (growth inhibition rate)” value (Cyperus iria) was 5 (Level 5: the growth inhibition rate is greater than 85%) and the “Activity level (growth inhibition rate) Abutilon theophrasti” value (Abutilon theophrasti) was 5 (Level 5: the growth inhibition rate is greater than 85%).
CC(Oc1nc(F)c(Cl)c(N)c1Cl)C(=O)SCc1cc(C2CC2)nn1C (stereo not drawn) [Compound 128] was tested, and the “Monochoria Vaginalis, activity level” value (Monochoria vaginalis [1]) was 5 (Level 5: the growth inhibition rate is greater than 85%), the “Rice, safety level” value (rice (japonica rice)) was 0 (Level 0: the growth inhibition rate is less than 5%) and the “Indica rice, activity level (growth inhibition rate)” value (Indica rice) was 0 (Level 0: the growth inhibition rate is less than 5%). The “Japonica rice, activity level (growth inhibition rate)” value (Japonica rice) was 0 (Level 0: the growth inhibition rate is less than 5%), the “Activity level (growth inhibition rate) Echinochloa crusgalli” value (Echinochloa crusgalli) was 5 (Level 5: the growth inhibition rate is greater than 85%) and the “Echinochloa crusgalli, activity level (growth inhibition rate)” value (Echinochloa crusgalli) was 5 (Level 5: the growth inhibition rate is greater than 85%). For the same compound, the “Activity level (growth inhibition rate) Monochoria Vaginalis” value (Monochoria vaginalis [2]) was 5 (Level 5: the growth inhibition rate is greater than 85%), the “Activity level (growth inhibition rate) Galium spurium” value (Galium spurium) was 5 (Level 5: the growth inhibition rate is greater than 85%) and the “Activity level (growth inhibition rate) Digitaria sanguinalis” value (Digitaria sanguinalis) was 5 (Level 5: the growth inhibition rate is greater than 85%). For the same compound, the “Cyperus iria, activity level (growth inhibition rate)” value (Cyperus iria) was 5 (Level 5: the growth inhibition rate is greater than 85%) and the “Activity level (growth inhibition rate) Abutilon theophrasti” value (Abutilon theophrasti) was 5 (Level 5: the growth inhibition rate is greater than 85%).
For CC(Oc1nc(F)c(Cl)c(N)c1Cl)C(=O)OCCc1ccoc1 (stereo not drawn) [Compound 140], the “Monochoria Vaginalis, activity level” value (Monochoria vaginalis [1]) was 5 (Level 5: the growth inhibition rate is greater than 85%), the “Rice, safety level” value (rice (japonica rice)) was 0 (Level 0: the growth inhibition rate is less than 5%) and the “Indica rice, activity level (growth inhibition rate)” value (Indica rice) was 0 (Level 0: the growth inhibition rate is less than 5%). For the same compound, the “Japonica rice, activity level (growth inhibition rate)” value (Japonica rice) was 0 (Level 0: the growth inhibition rate is less than 5%), the “Activity level (growth inhibition rate) Echinochloa crusgalli” value (Echinochloa crusgalli) was 5 (Level 5: the growth inhibition rate is greater than 85%) and the “Echinochloa crusgalli, activity level (growth inhibition rate)” value (Echinochloa crusgalli) was 5 (Level 5: the growth inhibition rate is greater than 85%). The “Activity level (growth inhibition rate) Monochoria Vaginalis” value (Monochoria vaginalis [2]) was 5 (Level 5: the growth inhibition rate is greater than 85%), the “Activity level (growth inhibition rate) Galium spurium” value (Galium spurium) was 5 (Level 5: the growth inhibition rate is greater than 85%) and the “Activity level (growth inhibition rate) Digitaria sanguinalis” value (Digitaria sanguinalis) was 5 (Level 5: the growth inhibition rate is greater than 85%). The “Cyperus iria, activity level (growth inhibition rate)” value (Cyperus iria) was 5 (Level 5: the growth inhibition rate is greater than 85%) and the “Activity level (growth inhibition rate) Abutilon theophrasti” value (Abutilon theophrasti) was 5 (Level 5: the growth inhibition rate is greater than 85%).
With CC(Oc1nc(F)c(Cl)c(N)c1Cl)C(=O)SCc1ccc2ncccc2c1 (stereo not drawn) [Compound 185] the “Monochoria Vaginalis, activity level” value (Monochoria vaginalis [1]) was 5 (Level 5: the growth inhibition rate is greater than 85%), the “Rice, safety level” value (rice (japonica rice)) was 0 (Level 0: the growth inhibition rate is less than 5%) and the “Indica rice, activity level (growth inhibition rate)” value (Indica rice) was 0 (Level 0: the growth inhibition rate is less than 5%). The “Japonica rice, activity level (growth inhibition rate)” value (Japonica rice) was 0 (Level 0: the growth inhibition rate is less than 5%), the “Activity level (growth inhibition rate) Echinochloa crusgalli” value (Echinochloa crusgalli) was 5 (Level 5: the growth inhibition rate is greater than 85%) and the “Echinochloa crusgalli, activity level (growth inhibition rate)” value (Echinochloa crusgalli) was 5 (Level 5: the growth inhibition rate is greater than 85%). The “Activity level (growth inhibition rate) Monochoria Vaginalis” value (Monochoria vaginalis [2]) was 5 (Level 5: the growth inhibition rate is greater than 85%), the “Activity level (growth inhibition rate) Galium spurium” value (Galium spurium) was 5 (Level 5: the growth inhibition rate is greater than 85%) and the “Activity level (growth inhibition rate) Digitaria sanguinalis” value (Digitaria sanguinalis) was 5 (Level 5: the growth inhibition rate is greater than 85%). The “Cyperus iria, activity level (growth inhibition rate)” value (Cyperus iria) was 5 (Level 5: the growth inhibition rate is greater than 85%) and the “Activity level (growth inhibition rate) Abutilon theophrasti” value (Abutilon theophrasti) was 5 (Level 5: the growth inhibition rate is greater than 85%).
